Read-outs that look alike come from different tables or passages of the source.
What was measured:
[1] = PK and oral bioavailability studies in rats; conditions: 20 mg/Kg (body weight), IV or PO
FCV [2] = assay: Cell culture system, FCV replication in CRFK cells (Example 3); type: cell-based, feline calicivirus; conditions: CRFK cells
[3] = system: 3CLpro of NV, MD145, MNV-1; type: biochemical, norovirus; conditions: optimized FRET-based protease assay
[4] = molecular target: T1, MD145 3CLpro (codon-optimized, full-length, N-terminal 6 His, recombinant) (Lordsdale virus, UniProt P54634); assay: biochemical; set-up: species or system norovirus strain MD145 (human norovirus GII)
EV71 = assay: Cell-based screening, EV71 in Vero cells (Example 2); set-up: species or system enterovirus 71; conditions: Enterovirus A, EV71, Vero, read-out: Inhibition [ED50 (μM)] against various viruses: Picornavirus, EV71
Experimental: (§1) 3. Cell-based screening of inhibitor. The effects of each inhibitor on the viral replication were examined. The list of viruses and corresponding cell lines are listed above in Table 2. Briefly, confluent cells were inoculated with virus at a MOI of 5 or 0.05 for 1 hr, and medium was replaced with medium containing mock-medium or each compound (up to 100 μM). The virus infected cells were further incubated for up to 96 hrs, and the replication of virus was measured by TCID50 assay with the 10-fold dilution of each sample used for virus titration (Reed and Muench, 1938). In some viruses, the virus protein and genome expression levels were detected by Western blot analysis and real-time qRT-PCR, respectively, as described below. The IC50s of the compounds were calculated.

MNV-1 [5] = assay: Cell culture system, MNV-1 replication in RAW267.4 cells (Example 3); type: cell-based, murine norovirus; conditions: RAW267.4 cells
[6] = system: Norwalk virus (HG23 cells); assay: microbe, parasite or virus in culture; type: cell-based; conditions: HG23, read-out: Inhibition [ED50 (μM)] against various viruses: Calicivirus, HG23 cells
MHV = assay: Cell-based screening, MHV in CCL-9.1 cells (Example 2); set-up: species or system mouse hepatitis virus; conditions: Murine coronavirus, read-out: Inhibition [ED50 (μM)] against various viruses: Coronavirus, MHV
[7] = molecular target: Norwalk virus 3CL protease (Norovirus, UniProt Q83883); assay: Recombinant NV protease fluorogenic substrate inhibition assay (Example 1); type: biochemical; conditions: 30 min pre-incubation, 30° C., pH 8.0
Experimental: After a 30 minute incubation period, 5 μL of 12 μM Edans-[…]-Dabcyl (SEQ ID NO:1) substrate in DMSO was then added and the increase in fluorescence was monitored for 30 minutes at an excitation and emission wavelength of 360 and 460 nm, respectively. Using a HORIBA FluoroMax 4 spectrofluorometer. Hydrolysis curves were linear. The final enzyme and substrate concentrations were 2.5 μM and 300 nM, respectively. […] Furthermore, the nature of the cap was also important (compare, for example, inhibitors A and D).

[8] = molecular target: SARS-CoV 3CLpro (codon-optimized, N-terminal 6 His, recombinant) (Severe acute respiratory syndrome coronavirus, UniProt P0C6X7); assay: biochemical
[9] = molecular target: HAV 3Cpro (full-length, 6 His, recombinant) (Human hepatitis A virus genotype IB, UniProt P08617); assay: biochemical; set-up: species or system human hepatitis A virus (strain HM175)
FIPV = assay: Cell-based screening, FIPV in CRFK cells (Example 2); set-up: species or system feline infectious peritonitis virus; conditions: Alphacoronavirus 1, CRFK, read-out: Inhibition [ED50 (μM)] against various viruses: Coronavirus, FIPV
Experimental: as §1

[10] = molecular target: recombinant 3C or 3CL of MD145 (Norovirus Hu/GII.4/MD145-12/1987/US (Maryland virus), UniProt Q8V0P3); assay: FRET protease assay, MD145 3CL (Example 2); type: biochemical, norovirus strain MD145
229E = assay: Cell-based screening, 229E in MRC-5 cells (Example 2); conditions: Human coronavirus 229E, MRC5, read-out: Inhibition [ED50 (μM)] against various viruses: Coronavirus, 229E
Experimental: as §1

HAV 3Cpro = HAV 3Cpro (Human hepatitis A virus genotype IB, UniProt P08617); assay: Optimized FRET protease assay, HAV 3Cpro (Example 3); type: biochemical
Experimental: Fluorogenic substrates with Edans and Dabcyl as a donor and quencher pair were purchased from Bachem (coronavirus substrate) or synthesized by GenScript. The viral proteases and the corresponding fluorogenic substrates are listed in Table 5, along with their sources.
Stock solutions (10 mM) of the substrates and the compounds were prepared in dimethyl sulfoxide (DMSO) and diluted in assay buffer. The assay buffer comprised 20 mM HEPES buffer containing NaCl (0 mM for HAV 3Cpro and 200 mM for all other proteases), 0.4 mM EDTA, Glycerol (60% for NV and MD145 3CLpro and 30% for TGEV and 229E 3CLpro), and 6 mM (NV and MD145 3CLpro and HAV 3Cpro)_or 4 mM (all other proteases) dithiothreitol (DTT) at pH 6 (coronavirus 3CLpro) or 8 (all other proteases). Each protease was mixed with serial dilutions of each compound or with DMSO in 25 μl of assay buffer and incubated at 37° C. for 30 min, followed by the addition of 25 μl of assay buffer containing substrate. Fluorescence readings were obtained using an excitation wavelength of 360 nm and an emission wavelength of 460 nm on a fluorescence microplate reader (FLx800; Biotek, Winooski, Vt.) at 1 h following the addition of substrate. The relative fluorescence units (RFU) were determined by subtracting background values (substrate-containing well without protease) from the raw fluorescence values. […]

TGEV = assay: Cell-based screening, TGEV in ST cells (Example 2); set-up: species or system transmissible gastroenteritis virus; conditions: Alphacoronavirus 1, read-out: Inhibition [ED50 (μM)] against various viruses: Coronavirus, TGEV
Experimental: as §1

MNV-1 [11] = assay: Cell-based screening, MNV-1 in RAW267.4 cells (Example 2); set-up: species or system murine norovirus; conditions: Norwalk virus, RAW267.4, read-out: Inhibition [ED50 (μM)] against various viruses: Calicivirus, MNV-1
Experimental: as §1

HAV = assay: Cell-based screening, HAV (Example 2); set-up: species or system hepatitis A virus; conditions: Picornaviridae, read-out: Inhibition [ED50 (μM)] against various viruses: Picornavirus, HAV
Experimental: as §1

FCV [12] = assay: Cell-based screening, FCV in CRFK cells (Example 2); conditions: Feline calicivirus, CRFK, read-out: Inhibition [ED50 (μM)] against various viruses: Calicivirus, FCV
Experimental: as §1

Teschovirus = assay: organism not typed; type: cell-based, porcine teschovirus; conditions: read-out: Inhibition [ED50 (μM)] against various viruses: Picornavirus, Teschovirus
[13] = molecular target: PV 3Cpro (codon-optimized, N-terminal 6 His, recombinant) (Poliovirus type 1, UniProt P03300); assay: biochemical; set-up: species or system poliovirus (poliomyelitis virus)
[14] = molecular target: T1, MD145 3CLpro (codon-optimized, full-length, N-terminal 6 His, recombinant); assay: biochemical; set-up: species or system norovirus strain MD145
[15] = molecular target: HRV 3Cpro (recombinant, purchased from EMD chemicals) (Human rhinovirus 14, UniProt P03303); assay: biochemical
[16] = molecular target: NV 3CLpro (codon-optimized, full-length, N-terminal 6 His, recombinant) (Norovirus, UniProt Q83883); assay: biochemical; set-up: species or system norovirus strain Norwalk
NV 3CLpro (codon-optimized, full-length, N-terminal 6 His, recombinant), sequence (Q83883 1101-1281): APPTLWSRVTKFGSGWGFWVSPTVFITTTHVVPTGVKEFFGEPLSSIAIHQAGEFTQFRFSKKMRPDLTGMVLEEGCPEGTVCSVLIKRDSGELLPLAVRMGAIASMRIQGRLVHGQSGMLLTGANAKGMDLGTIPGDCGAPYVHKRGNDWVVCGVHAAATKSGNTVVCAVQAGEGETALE

T1 sequence (P54634 1009-1189): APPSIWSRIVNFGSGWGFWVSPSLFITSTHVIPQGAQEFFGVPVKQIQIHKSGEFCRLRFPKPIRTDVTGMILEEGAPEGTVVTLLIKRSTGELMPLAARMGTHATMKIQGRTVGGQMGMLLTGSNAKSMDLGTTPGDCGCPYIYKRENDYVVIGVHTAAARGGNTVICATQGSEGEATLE
HAV 3Cpro (full-length, 6 His, recombinant), sequence (P08617 1520-1738): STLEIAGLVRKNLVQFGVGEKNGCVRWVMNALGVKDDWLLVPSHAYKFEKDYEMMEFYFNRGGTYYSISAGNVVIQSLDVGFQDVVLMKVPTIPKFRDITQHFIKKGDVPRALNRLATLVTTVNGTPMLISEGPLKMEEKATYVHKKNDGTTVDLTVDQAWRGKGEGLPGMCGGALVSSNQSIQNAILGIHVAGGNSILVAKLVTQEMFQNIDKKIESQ
HAV 3Cpro, sequence (P08617 1520-1738): as above
HRV 3Cpro (recombinant, purchased from EMD chemicals), sequence (P03303 1538-1719): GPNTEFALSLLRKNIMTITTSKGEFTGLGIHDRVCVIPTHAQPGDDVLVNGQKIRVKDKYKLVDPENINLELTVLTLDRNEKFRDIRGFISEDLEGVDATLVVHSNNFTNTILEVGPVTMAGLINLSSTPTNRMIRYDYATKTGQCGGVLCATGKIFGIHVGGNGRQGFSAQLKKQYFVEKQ
PV 3Cpro (codon-optimized, N-terminal 6 His, recombinant), sequence (P03300 1566-1748 limits assumed): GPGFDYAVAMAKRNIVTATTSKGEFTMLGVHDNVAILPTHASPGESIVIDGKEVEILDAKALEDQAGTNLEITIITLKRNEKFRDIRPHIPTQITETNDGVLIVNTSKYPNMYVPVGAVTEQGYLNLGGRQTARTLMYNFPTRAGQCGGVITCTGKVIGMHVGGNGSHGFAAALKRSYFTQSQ
recombinant 3C or 3CL of MD145, sequence (Q8V0P3 entry or part of it): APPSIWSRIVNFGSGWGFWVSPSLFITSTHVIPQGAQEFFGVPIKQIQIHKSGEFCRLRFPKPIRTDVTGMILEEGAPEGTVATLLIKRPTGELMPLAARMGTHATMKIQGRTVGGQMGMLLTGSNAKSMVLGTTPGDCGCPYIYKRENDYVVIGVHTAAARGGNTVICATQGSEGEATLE
Norwalk virus 3CL protease, sequence (Q83883 1101-1281): as the sequence (Q83883 1101-1281) above

CC(C)C[C@H](NC(=O)OCc1ccccc1)C(=O)N[C@@H](CC1CCNC1=O)C(=O)C(=O)NC(C)C (stereo partly drawn) [GC375]
oral bioavailability, % F [1]: 16 % F | antiviral effects against FCV: no effects at concentrations up to (FCV [2]): > 50 µM | effect on the activity of 3CLpro of NV, MD145, MNV-1 (in words) [3]: lower than those of GC373 and GC376 | IC50 [4]: 4.03 µM | EC50 (EV71): 15 µM | antiviral effects against MNV-1: no effects at concentrations up to (MNV-1 [5]): > 50 µM | EC50 [6]: 3.2 µM | EC50 (MHV): 4.5 µM | inhibitory activity against Norwalk virus 3CL protease (in words) [7]: devoid of inhibitory activity | IC50 [8]: 4.66 ± 0.19 µM | IC50 [9]: 42.6 ± 2.61 µM | EC50 (FIPV): 1.5 µM | IC50 [10]: 6.4 µM | EC50 (229E): 0.15 µM | inhibitory effect on HAV 3Cpro (in words) (HAV 3Cpro): weak but appreciable inhibitory effects | EC50 (TGEV): 0.2 µM | EC50 (MNV-1 [11]): 85 µM | EC50 (HAV): 20 µM | EC50 (FCV [12]): 4.5 µM | EC50 (Teschovirus): 0.2 µM

CCOC(=O)/C=C/[C@H](C[C@@H]1CCNC1=O)NC(=O)[C@@H](CC(=O)[C@@H](NC(=O)c1cc(C)on1)C(C)C)Cc1ccc(F)cc1 [Rupintrivir, reference compound]
IC50 [13]: 1.83 ± 0.38 µM | IC50 [14]: 0.7 ± 0.19 µM | IC50 [15]: 0.34 ± 0.05 µM | IC50 [16]: 0.83 ± 0.19 µM

From US9474759B2 (priority 2011, dated 2016)
